The text below walks through data of patent publication US20150313241A1, “Pesticidal Mixtures” (BASF Corporation, priority 2012, published 2015).

The experiment concerns wheat. The experiment is described as follows: Improvement of plant height in wheat (greenhouse pot trial, Use Example H-2). Format: in vivo. The settings on record: wheat cv. J B Asano, 14 days at 20° C., % compared to untreated control (100 = 13.9 cm), pyraclostrobin 5 g ai/100 kg seeds as seed treatment, B. simplex broth 10 ml per seed as drench. The method, then:
Pyraclostrobin was applied as commercial seed treatment formulation STAMINA (200 g/L a.i., BASF SE, Ludwigshafen, Germany).
In pot trials in Limburgerhof greenhouses, Bacillus simplex ABU 288 was tested in wheat and maize as solo products and in combination with pyraclostrobin to show effects on plant height. The application of the pyraclostrobin was done as seed treatment and the seeds were treated in the BASF Seed Solutions Technology Center (SSTC) Limburgerhof using a batch lab treater. The respective amounts of seeds was placed in the bowl of the treater and the slurry was dosed on the spinning disk.
The bacterials were grown in shake flasks and used as fermentation broth with a CFU of at least 1×10^12 per ml. This broth was added as a drench solution directly adjacent to the seeds with 10 ml for each seed kernel which makes 50 ml per pot.
The trial was sown in 8 cm pots and a mix of peat substrate and sand (ratio 1:4) was used as a substrate. […]
For the assessment, the plant height from all plants was measured in cm. […]
The expected relative plant height of active compound combinations were determined using Colby's formula (Colby, S. R. “Calculating synergistic and antagonistic responses of herbicide combinations”, Weeds 15, pp. 20-22, 1967) and compared with the observed efficacies. […]

As to pyraclostrobin, the “Observed relative plant height” value is recorded as 99.4%.
